Results on 58 compounds are retold here after BindingDB's records for doi:10.7270/Q2H993J6 (Pcmd, 2008).

Sequence of Coagulation factor XI (P03951 19-387 limits assumed): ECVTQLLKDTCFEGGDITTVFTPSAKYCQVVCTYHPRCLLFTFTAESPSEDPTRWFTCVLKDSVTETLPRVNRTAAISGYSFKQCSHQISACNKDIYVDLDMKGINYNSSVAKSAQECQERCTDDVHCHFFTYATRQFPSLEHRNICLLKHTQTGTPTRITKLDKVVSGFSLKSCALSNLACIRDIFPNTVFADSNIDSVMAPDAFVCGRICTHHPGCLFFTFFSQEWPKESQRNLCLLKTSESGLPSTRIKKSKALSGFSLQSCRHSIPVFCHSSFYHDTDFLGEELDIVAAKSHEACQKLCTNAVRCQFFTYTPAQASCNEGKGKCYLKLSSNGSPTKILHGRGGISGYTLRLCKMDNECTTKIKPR
Sequence of Coagulation factor XI (P03951 388-625 limits assumed): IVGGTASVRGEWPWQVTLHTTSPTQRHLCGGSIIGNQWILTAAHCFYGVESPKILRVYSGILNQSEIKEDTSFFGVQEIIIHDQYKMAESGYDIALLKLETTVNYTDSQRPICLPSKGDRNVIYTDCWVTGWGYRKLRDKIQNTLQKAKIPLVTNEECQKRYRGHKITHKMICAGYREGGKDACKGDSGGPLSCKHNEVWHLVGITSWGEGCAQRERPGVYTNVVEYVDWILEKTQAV

The test concerns the target Coagulation factor XI (Homo sapiens, UniProt P03951). The experiment in a line: FXIa inhibitor IC50 values, dose response, biochemical, hits from 1536-well screen (AID 846). Conditions: pH 7.4; 23 °C.
By IC50 is commonly meant the concentration that inhibits the measured activity by half. A higher IC50 goes with lower potency. On to `COCC(=O)Nc1ccccc1-c1ccccc1` [N-2-biphenylyl-2-methoxyacetamide], for which the IC50 is more than 50 µM. `O=C(NNC(=O)c1cccs1)c1ccc(Br)o1` [5-bromo-N'-(thiophene-2-carbonyl)furan-2-carbohydrazide] displayed an IC50 of 8.51 µM. The figure for `COc1ccc(-c2n[nH]cc2C2N=C(N)Nc3nc4ccccc4n32)cc1` (stereo not drawn) is more than 50 µM; for `Oc1cc(Sc2ccc(Cl)cc2)c(O)n1-c1ccc2c(c1)OCCO2` it is more than 50 µM. As for `CCNc1cc(N2CCNCC2)ccc1[N+](=O)[O-]`, the figure is more than 50 µM. Regarding `CC1(C)[N-]c2ccc([N+](=O)[O-])c(N)c2[N+]1=O` [MLS001012383], the IC50 is more than 50 µM.

Compound `CCOC(=O)C(=O)N(Nc1ccc(C)cc1)c1ccc(C)cc1` gave a half-inhibitory concentration (IC50) of more than 50 µM. The figure for `CCCNC(=O)C1CC(c2ccc(C(F)(F)F)cc2)=NO1` (stereo not drawn) [N-propyl-3-[4-(trifluoromethyl)phenyl]-4,5-dihydro-1,2-oxazole-5-carboxamide] is 14.3 µM; for `C/C=C(\C)C(=O)OC1c2c(ccc3ccc(=O)oc23)OC(C)(C)C1OC(C)=O` (stereo not drawn) [MLS000121833] it is more than 50 µM; for `COc1ccc(CSc2nc(C)cc(C)c2S(C)(=O)=O)cc1` [2-[(4-methoxybenzyl)sulfanyl]-4,6-dimethyl-3-pyridinyl methyl sulfone] it is more than 50 µM. As for `O=C(Oc1ccc(=O)n(-c2ccccc2)n1)c1ccc(Cl)cc1` [4-chlorobenzoic acid (6-oxo-1-phenyl-3-pyridazinyl) ester], the figure is 5.6 µM. As for `O=C(c1cccn2c(=O)c3cc(Br)ccc3nc12)N1CCC2(CC1)OCCO2` [2-bromanyl-6-(1,4-dioxa-8-azaspiro[4.5]decan-8-ylcarbonyl)pyrido[2,1-b]quinazolin-11-one], the figure is more than 50 µM; as for `COc1cccc(C=NNC(=O)c2[nH]c(C)c(C(=O)NN=Cc3cccc(OC)c3O)c2C)c1O` [SMR000162187], more than 50 µM. `O=C1SCCC1NC(=O)C(c1ccccc1)c1ccccc1` (stereo not drawn) [SMR000425361] had an IC50 of more than 50 µM. The figure for `COc1ccc(Cl)cc1NC(=O)Nc1cn(C)nc1C` [SMR000458292] is more than 50 µM. For `CCOc1cccc2c1OC1(C)CC2NC(=O)N1Cc1ccccc1` (stereo not drawn) [MLS000730538], the IC50 is more than 50 µM. As for `O=C(NCc1ccccc1)c1ccc(Cl)nc1`, the figure is more than 50 µM; as for `Cn1cccc1/C=C1\C(=O)NC(=O)N(Cc2ccccc2Cl)C1=O` [(5E)-1-[(2-chlorophenyl)methyl]-5-[(1-methylpyrrol-2-yl)methylidene]-1,3-diazinane-2,4,6-trione], more than 50 µM; as for `Cc1nnc(SCCn2c(Br)nc3c2c(=O)[nH]c(=O)n3C)s1`, more than 50 µM. As for `O=S(=O)([N-]c1nc2ccccc2nc1-[n+]1ccn(Cc2ccccc2)c1)c1ccc(Cl)cc1` [(4-chlorophenyl)sulfonyl-[3-[3-(phenylmethyl)imidazol-3-ium-1-yl]quinoxalin-2-yl]azanide], the figure is more than 50 µM. For `CS(=O)(=O)c1ccc(Cl)c(NC(=O)COC(=O)CNC(=O)c2ccccc2)c1` [2-benzamidoacetic acid [2-(2-chloro-5-methylsulfonylanilino)-2-oxoethyl] ester], the IC50 is more than 50 µM. As for `CCSc1nnc(NC(=O)[C@H](C)N2C(=O)C3CC=CCC3C2=O)s1` (stereo partly drawn) [(2S)-2-(1,3-dioxo-3a,4,7,7a-tetrahydroisoindol-2-yl)-N-[5-(ethylthio)-1,3,4-thiadiazol-2-yl]propanamide], the figure is more than 50 µM; as for `O=C(Oc1ccc(=O)n(-c2ccccc2)n1)c1cccc(Cl)c1` [(6-oxidanylidene-1-phenyl-pyridazin-3-yl) 3-chloranylbenzoate], 1.71 µM. As for `COc1c(C)cc(C(=O)C2CCCN(S(=O)(=O)c3c(C)noc3C)C2)cc1C` (stereo not drawn) [MLS000693702], the figure is more than 50 µM; as for `COc1ccc(C(=O)Nc2ccc(N3CCN(c4ccc(OC)cc4)CC3)c(C#N)c2)cc1` [N-[3-cyano-4-[4-(4-methoxyphenyl)piperazin-1-yl]phenyl]-4-methoxy-benzamide], more than 50 µM. `Nn1c(C2CCCCC2)nc2ccccc2c1=O` [3-azanyl-2-cyclohexyl-quinazolin-4-one]: the IC50 was more than 50 µM. The figure for `CC(C)CNC(=O)Nc1ccc(F)c(Cl)c1` [MLS000679438] is more than 50 µM; for `CC(C)NC(=O)CSc1nc(-c2ccccc2)cs1` [2-[(4-phenyl-1,3-thiazol-2-yl)sulfanyl]-N-propan-2-yl-ethanamide] it is more than 50 µM; for `CCc1ccc[n+](-c2[n-]c(=O)sc2C=NNC(N)=O)c1` it is more than 50 µM. The figure for `CCN(C(=O)COC(=O)/C=C/c1c(C)nn(-c2ccccc2)c1C)C1CCS(=O)(=O)C1` (stereo not drawn) [(E)-3-(3,5-dimethyl-1-phenyl-4-pyrazolyl)-2-propenoic acid [2-[(1,1-dioxo-3-thiolanyl)-ethylamino]-2-oxoethyl] ester] is more than 50 µM; for `N#C/C(=C\c1cccnc1)c1nc2ccccc2[nH]1` [(E)-2-(1H-Benzoimidazol-2-yl)-3-pyridin-3-yl-acrylonitrile] it is more than 50 µM.

For the compound `O=C(O)CCCC(=O)N1N=C(c2ccccc2)CC1c1cccs1` (stereo not drawn) [SMR000414955], the concentration for half-maximal inhibition (IC50) was more than 50 µM. As to `Cc1ccc(CN2C(=O)C(=NNC(=S)Nc3ccccc3F)c3cc(S(=O)(=O)N4CCOCC4)ccc32)cc1` [SMR000314855], the IC50 is more than 50 µM. Compound `Cc1nn(C)c(C)c1C=C(C(=O)C(C)C)n1cncn1` [SMR000427822] had a half-maximal inhibitory concentration (IC50) of more than 50 µM. Compound `CC1=C(C(=O)OCCOc2ccccc2)C(c2ccsc2)NC(=O)N1C` (stereo not drawn) [2-phenoxyethyl 3,4-dimethyl-2-oxo-6-thiophen-3-yl-1,6-dihydropyrimidine-5-carboxylate] had an IC50 of more than 50 µM.

The compound `Cc1n[nH]c(C)c1CCC(=O)NN=Cc1c[nH]c2ccccc12` [3-(3,5-Dimethyl-1H-pyrazol-4-yl)-propionic acid [1-(1H-indol-3-yl)-meth-(E)-ylidene]-hydrazide] showed an IC50 of more than 50 µM. The figure for `COCCNCC(=O)Nc1nc(C)cs1` [SMR000287473] is more than 50 µM; for `CN(Cc1ccon1)C(=O)CC1C(=O)NCCN1CC1CCCCC1` (stereo not drawn) [2-[1-(cyclohexylmethyl)-3-oxopiperazin-2-yl]-N-(isoxazol-3-ylmethyl)-N-methylacetamide] it is more than 50 µM; for `O=C(Cc1cccs1)Nc1nnc(CCc2ccccc2)s1` [MLS000064221] it is more than 50 µM. As for `COc1ccccc1CC(=O)NCc1csc(-c2cccs2)n1` [MLS000859819], the figure is more than 50 µM; as for `CCOC(=O)c1ccc(NC(=O)Nc2cccc(C)n2)cc1` [MLS000679527], more than 50 µM. For the compound `O=C(Oc1cncc(Cl)c1)c1ccco1`, it took 0.741 µM to reach half-maximal inhibition (IC50). The figure for `Cc1ccc(C(=O)C(=O)c2ccc(C)c(N)c2)cc1N` is more than 50 µM; for `Cc1ccc(S(=O)(=O)ON2C(=O)c3ccccc3C2=O)c(C)c1` [MLS000579570] it is 1.08 µM; for `COc1cc(CN=Nc2cc(C)nc(NS(=O)(=O)c3ccccc3)n2)ccc1O` it is more than 50 µM. The figure for `Cc1cc(C)c(S(=O)(=O)ON2C(=O)c3ccccc3C2=O)cc1C` [MLS000577081] is 1.01 µM; for `COc1cc(C=NNC(=O)c2ccc(CN3C(=O)c4cccc5cccc3c45)cc2)cc(OC)c1O` [MLS001033788] it is more than 50 µM; for `Cc1cc(C(=O)Cn2nc(C(=O)O)c3ccccc3c2=O)c(C)n1-c1cccc(C(F)(F)F)c1` it is more than 50 µM.

In turn, `Cn1cccc1C(=O)Nc1nc(-c2ccccn2)cs1` [SMR000064459] returned a 50% inhibitory concentration (IC50) of 21.6 µM. The figure for `Cc1ccc(NC2=NC3(CCCCC3)N=C(N)N2)c(C)c1` [N4-(2,4-dimethylphenyl)-1,3,5-triazaspiro[5.5]undeca-1,4-diene-2,4-diamine] is more than 50 µM; for `Cc1ccc(C)c(S(=O)(=O)ON2C(=O)c3ccccc3C2=O)c1` [2,5-dimethylbenzenesulfonic acid (1,3-dioxo-2-isoindolyl) ester] it is 0.762 µM; for `CC(C)(C)C(=O)CSc1ncnc2c1cnn2-c1ccccc1` it is more than 50 µM. As for `CN1C(=O)C(=NOC(=O)c2ccccc2)c2ccccc21` [MLS000556117], the figure is 25.9 µM.

`CN1CCN(S(=O)(=O)Cc2ccc(Cl)cc2)CC1` [SMR000456888] returned a concentration for half-maximal inhibition (IC50) of more than 50 µM.

The compound `CCOC(=O)Cc1csc(NC(=O)CC(C)(C)CC(=O)O)n1` [5-[[4-(2-ethoxy-2-oxidanylidene-ethyl)-1,3-thiazol-2-yl]amino]-3,3-dimethyl-5-oxidanylidene-pentanoic acid] came in with an IC50 of more than 50 µM. The figure for `Cc1cccc(NC(=O)c2cc(-n3c(O)ccc3O)ccc2Cl)n1` is more than 50 µM; for `CCOc1ccc(NC(=O)CN2C(=O)/C(=C3\SC(=S)N(C4CCS(=O)(=O)C4)C3=O)c3ccccc32)cc1` (stereo not drawn) [2-[(3Z)-3-[3-[1,1-bis(oxidanylidene)thiolan-3-yl]-4-oxidanylidene-2-sulfanylidene-1,3-thiazolidin-5-ylidene]-2-oxidanylidene-indol-1-yl]-N-(4-ethoxyphenyl)ethanamide;ethanoic acid] it is more than 50 µM; for `O=C(Nc1nc(-c2ccccc2)cs1)c1ccc(S(=O)(=O)N2CCc3ccccc32)cc1` [SMR000235796] it is more than 50 µM.
